According to patent US11439641B2, “Pyrimidine JAK inhibitors for the treatment of skin diseases” (THERAVANCE BIOPHARMA R&D IP, LLC, priority 2019, dated 2022):

Assays:
[1] = Aqueous Solubility Assay; settings: PBS buffer pH 7.4; maximum upper limit 1,000 μM
[2] = target: JAK3 (Homo sapiens (Human), UniProt P52333); test: Biochemical JAK and Tyk2 Kinase Assays (LanthaScreen), JAK3; settings: 1.6 μM ATP (Km), pIC50 converted to pKi by Cheng-Prusoff; for Ki: read-out: JAK 3 (pKi) (converted)
[3] = target: JAK1 (Homo sapiens (Human), UniProt P23458); test: Biochemical JAK and Tyk2 Kinase Assays (LanthaScreen), JAK1; settings: 25 μM ATP (Km), pIC50 converted to pKi by Cheng-Prusoff
[4] = system: IL-2 stimulated pSTAT5 in Tall-1 T cells; test: Inhibition of IL-2 Stimulated pSTAT5 in Tall-1 T Cells; type: cell-based; settings: Tall-1 human T cell line, IL-2 300 ng/mL, AlphaLisa
Summary of the method: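 Cells preincubated with compound 1 hour at 37° C, then stimulated with IL-2 (final 300 ng/mL) for 30 minutes. After lysis, pSTAT5 (Tyr694/699) read by AlphaLISA luminescence. IC50 from inhibition curves, reported as pIC50 (mean±SD).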

[5] = Solubility Assay in Organic Excipients; settings: maximum upper limit 20,000 μM; for Solubility in MCT (mg/mL): medium chain triglycerides (MCT)
[6] = system: Caco-2 cell monolayer; test: Caco-2 Permeation Assay; type: in vitro ADME; settings: Papp, 5 μM compound; for Cacoverap Kp 10^−6 cm/sec: A→B in the presence of 25 μM verapamil (P-gp inhibitor); for Caco Kp 10^−6 cm/sec: apical to basal (A→B)
Protocol: Assay 3: Caco-2 Permeation Assay
The Caco 2 permeability assay was used as a surrogate for assessment of skin permeability. This assay measures the in vitro permeability across a monolayer of Caco-2 cells, which morphologically and functionally resemble the enterocytes of the small intestine.
CacoReady 24-well transwell plates were obtained from ADMEcell (Alameda, Calif.). The compounds were evaluated at a concentration of 5 μM from 10 mM DMSO stock solutions in duplicate (n=2). Transport in the apical to basal (A→B) direction was determined in Caco 2 cell monolayers. From these values the apparent permeability (Papp) was calculated. To inform on the potential of the compound to be a P-gp substrate, the transport of the compound across the Caco-2 cell monolayer was also determined in the presence of 25 μM of the known P-gp inhibitor verapamil (Yusa and Tsuruo et al., Cancer Research, vol. 49, no. 18, 1989, pp. 5002-06).
Caco-2 culture media consisted of standard filtered DMEM, FCS 10%, L-Glutamine 1%, and PenStrep 1%. The experiment was conducted at 37° C. and in a CO2 (5%) incubator. The basal assay plate was prepared by adding 750 pt of transport buffer to A→B wells. A CacoReady™ plate was prepared by removing the Caco-2 media from the apical wells and replacing with fresh transport media (200 pt repeated for a total of 3 washes). Blank media (200 μL) was then replaced with diluted compound. To begin the incubation, the basal plate was removed from the incubator and the apical section was added on top of it. Samples were collected from the apical and basal compartments for time zero (t0). Samples were collected again after 120 minutes (t120) from the apical and basal compartments. All samples were diluted and prepared for bioanalysis by LC-MS/MS. The permeability coefficients (Papp, mean A to B) and (Papp, mean A to B+Verapamil) in cm/sec were calculated as dQ (flux)/(dt×Area×concentration).
In this assay, a compound with a Papp value of more than about 12×10−6 cm/sec is considered to have high permeability.

[7] = physchem; settings: thermodynamic from solid
[8] = target: Tyk2 (Homo sapiens (Human), UniProt P29597); test: Biochemical JAK and Tyk2 Kinase Assays (LanthaScreen), Tyk2; settings: 10 μM ATP (Km); pIC50 converted to pKi by Cheng-Prusoff; read-out: Tyk 2 (pKi) (converted)
Protocol: (§1) Assay 1: Biochemical JAK and Tyk2 Kinase Assays
(§2) A panel of four LanthaScreen JAK biochemical assays (JAK1, 2, 3 and Tyk2) were carried in a common kinase reaction buffer (50 mM HEPES, pH 7.5, 0.01% Brij-35, 10 mM MgCl2, and 1 mM EGTA). Recombinant GST-tagged JAK enzymes and a GFP-tagged STAT1 peptide substrate were obtained from Life Technologies.
(§3) Serially or discretely diluted compounds were pre-incubated with each of the four JAK enzymes and the substrate in white 384-well microplates (Corning) at ambient temperature for 1 h. ATP was subsequently added to initiate the kinase reactions in 10 μL total volume, with 1% DMSO. The final enzyme concentrations for JAK1, 2, 3 and Tyk2 are 4.2 nM, 0.1 nM, 1 nM, and 0.25 nM respectively; the corresponding Km ATP concentrations used are 25 μM, 3 μM, 1.6 μM, and 10 μM; while the substrate concentration is 200 nM for all four assays. Kinase reactions were allowed to proceed for 1 hour at ambient temperature before a 10 μL preparation of EDTA (10 mM final concentration) and Tb-anti-pSTAT1 (pTyr701) antibody (Life Technologies, 2 nM final concentration) in TR-FRET dilution buffer (Life Technologies) was added. The plates were allowed to incubate at ambient temperature for 1 h before being read on the EnVision reader (Perkin Elmer). Emission ratio signals (520 nm/495 nm) were recorded and utilized to calculate the percent inhibition values based on DMSO and background controls.
(§4) For dose-response analysis, percent inhibition data were plotted vs. compound concentrations, and IC50 values were determined from a 4-parameter robust fit model with the Prism software (GraphPad Software). Results were expressed as pIC50 (negative logarithm of IC50) and subsequently converted to pKi (negative logarithm of dissociation constant, Ki) using the Cheng-Prusoff equation.

[9] = target: JAK2 (Homo sapiens (Human), UniProt O60674); test: Biochemical JAK and Tyk2 Kinase Assays (LanthaScreen), JAK2; settings: 3 μM ATP (Km); pIC50 converted to pKi by Cheng-Prusoff
Protocol: as §1, §2, §3, §4

[10] = oil or lipid, Solubility in MCT (mg/mL)
[11] = organic solvent or mixture, Solubility in Diisopropyl adipate (mg/mL)
[12] = organic solvent or mixture, Solubility in PEG400 (mg/mL)
[13] = organic solvent or mixture, Solubility in Propylene glycol (mg/mL)

JAK1, sequence (P23458 whole entry): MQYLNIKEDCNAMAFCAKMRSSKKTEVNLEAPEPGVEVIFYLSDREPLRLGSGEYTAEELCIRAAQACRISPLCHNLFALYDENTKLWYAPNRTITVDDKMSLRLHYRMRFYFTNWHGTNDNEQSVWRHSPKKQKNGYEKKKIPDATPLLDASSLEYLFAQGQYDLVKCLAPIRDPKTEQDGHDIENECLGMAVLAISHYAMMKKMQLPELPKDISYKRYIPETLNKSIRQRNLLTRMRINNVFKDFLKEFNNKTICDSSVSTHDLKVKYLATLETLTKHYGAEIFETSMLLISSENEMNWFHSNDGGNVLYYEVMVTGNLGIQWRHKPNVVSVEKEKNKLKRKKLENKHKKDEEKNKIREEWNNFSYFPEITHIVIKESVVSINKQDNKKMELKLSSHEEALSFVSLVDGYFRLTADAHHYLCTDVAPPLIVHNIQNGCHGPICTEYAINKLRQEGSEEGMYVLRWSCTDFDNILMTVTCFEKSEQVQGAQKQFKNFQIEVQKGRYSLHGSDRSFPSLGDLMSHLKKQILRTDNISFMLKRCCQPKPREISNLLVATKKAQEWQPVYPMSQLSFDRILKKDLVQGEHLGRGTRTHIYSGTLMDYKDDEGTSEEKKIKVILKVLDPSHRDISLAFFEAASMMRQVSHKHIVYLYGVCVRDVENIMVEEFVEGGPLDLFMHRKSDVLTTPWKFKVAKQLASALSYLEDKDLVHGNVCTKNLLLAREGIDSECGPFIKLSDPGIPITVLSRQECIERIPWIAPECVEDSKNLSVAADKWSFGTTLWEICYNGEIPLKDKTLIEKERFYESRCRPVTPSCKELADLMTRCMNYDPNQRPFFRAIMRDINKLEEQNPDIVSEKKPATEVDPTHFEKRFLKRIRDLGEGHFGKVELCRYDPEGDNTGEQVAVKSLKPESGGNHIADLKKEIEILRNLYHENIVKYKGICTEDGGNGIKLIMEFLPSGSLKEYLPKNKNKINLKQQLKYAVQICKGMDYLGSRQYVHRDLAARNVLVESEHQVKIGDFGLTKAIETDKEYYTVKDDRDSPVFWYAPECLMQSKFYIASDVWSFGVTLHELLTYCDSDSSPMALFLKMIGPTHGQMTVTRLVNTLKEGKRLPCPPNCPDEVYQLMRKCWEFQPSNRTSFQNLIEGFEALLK
JAK3, sequence (P52333 whole entry): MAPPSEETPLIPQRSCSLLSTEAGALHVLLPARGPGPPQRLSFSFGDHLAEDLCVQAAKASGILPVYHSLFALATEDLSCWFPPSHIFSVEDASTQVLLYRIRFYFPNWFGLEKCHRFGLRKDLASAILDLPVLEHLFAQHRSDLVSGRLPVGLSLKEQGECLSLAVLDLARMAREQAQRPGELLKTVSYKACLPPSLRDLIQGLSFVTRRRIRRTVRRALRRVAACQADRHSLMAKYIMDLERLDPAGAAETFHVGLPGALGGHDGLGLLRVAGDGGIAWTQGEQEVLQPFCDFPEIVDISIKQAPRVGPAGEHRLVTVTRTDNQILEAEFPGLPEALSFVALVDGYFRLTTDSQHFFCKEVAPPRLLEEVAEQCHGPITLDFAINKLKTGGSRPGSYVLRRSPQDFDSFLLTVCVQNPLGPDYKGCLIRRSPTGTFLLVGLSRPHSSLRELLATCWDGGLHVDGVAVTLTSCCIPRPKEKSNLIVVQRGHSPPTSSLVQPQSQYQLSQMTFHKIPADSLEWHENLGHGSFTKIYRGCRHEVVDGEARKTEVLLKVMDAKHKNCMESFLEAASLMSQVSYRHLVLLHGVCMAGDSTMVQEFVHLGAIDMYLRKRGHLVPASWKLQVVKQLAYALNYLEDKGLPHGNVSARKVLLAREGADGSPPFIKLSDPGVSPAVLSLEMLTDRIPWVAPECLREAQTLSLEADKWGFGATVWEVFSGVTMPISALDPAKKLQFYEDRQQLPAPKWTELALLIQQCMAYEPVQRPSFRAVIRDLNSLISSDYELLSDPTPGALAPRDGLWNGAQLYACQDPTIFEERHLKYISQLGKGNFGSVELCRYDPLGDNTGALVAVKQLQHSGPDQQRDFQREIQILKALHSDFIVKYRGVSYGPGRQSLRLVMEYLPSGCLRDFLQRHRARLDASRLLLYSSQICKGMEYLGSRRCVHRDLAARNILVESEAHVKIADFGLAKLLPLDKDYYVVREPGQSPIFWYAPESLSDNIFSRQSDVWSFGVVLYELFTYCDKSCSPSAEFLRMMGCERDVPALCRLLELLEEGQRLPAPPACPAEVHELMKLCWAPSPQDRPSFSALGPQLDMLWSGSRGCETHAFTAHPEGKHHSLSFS
Tyk2, sequence (P29597 whole entry): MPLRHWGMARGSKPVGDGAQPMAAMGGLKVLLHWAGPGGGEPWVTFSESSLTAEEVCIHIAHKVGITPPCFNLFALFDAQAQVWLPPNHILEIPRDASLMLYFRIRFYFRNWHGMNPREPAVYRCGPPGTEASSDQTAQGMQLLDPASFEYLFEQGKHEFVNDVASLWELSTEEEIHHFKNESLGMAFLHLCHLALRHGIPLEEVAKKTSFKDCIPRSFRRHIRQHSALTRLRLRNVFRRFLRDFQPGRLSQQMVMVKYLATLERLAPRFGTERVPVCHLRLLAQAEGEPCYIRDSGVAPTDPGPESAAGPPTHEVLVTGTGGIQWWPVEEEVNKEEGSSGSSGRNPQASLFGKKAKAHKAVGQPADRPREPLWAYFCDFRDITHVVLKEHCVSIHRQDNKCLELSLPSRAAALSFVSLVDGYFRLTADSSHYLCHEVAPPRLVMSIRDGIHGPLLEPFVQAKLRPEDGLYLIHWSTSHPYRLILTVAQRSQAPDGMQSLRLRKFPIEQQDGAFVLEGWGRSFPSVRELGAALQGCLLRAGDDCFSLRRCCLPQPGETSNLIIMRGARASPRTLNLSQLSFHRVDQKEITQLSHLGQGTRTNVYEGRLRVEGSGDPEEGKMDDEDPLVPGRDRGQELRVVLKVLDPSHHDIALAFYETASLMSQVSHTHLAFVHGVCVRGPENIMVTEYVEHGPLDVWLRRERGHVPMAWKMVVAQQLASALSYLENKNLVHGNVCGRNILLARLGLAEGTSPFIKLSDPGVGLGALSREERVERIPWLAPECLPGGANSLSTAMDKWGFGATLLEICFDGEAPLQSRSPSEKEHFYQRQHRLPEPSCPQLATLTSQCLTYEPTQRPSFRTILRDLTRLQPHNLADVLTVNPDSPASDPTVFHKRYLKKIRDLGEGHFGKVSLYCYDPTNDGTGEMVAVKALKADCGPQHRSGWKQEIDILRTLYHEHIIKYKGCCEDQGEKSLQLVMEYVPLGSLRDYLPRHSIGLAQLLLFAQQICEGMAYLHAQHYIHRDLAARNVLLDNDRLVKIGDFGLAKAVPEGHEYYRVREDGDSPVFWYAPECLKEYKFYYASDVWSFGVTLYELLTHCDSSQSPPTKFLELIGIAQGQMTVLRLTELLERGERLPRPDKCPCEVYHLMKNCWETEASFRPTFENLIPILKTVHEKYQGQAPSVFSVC
JAK2, sequence (O60674 whole entry): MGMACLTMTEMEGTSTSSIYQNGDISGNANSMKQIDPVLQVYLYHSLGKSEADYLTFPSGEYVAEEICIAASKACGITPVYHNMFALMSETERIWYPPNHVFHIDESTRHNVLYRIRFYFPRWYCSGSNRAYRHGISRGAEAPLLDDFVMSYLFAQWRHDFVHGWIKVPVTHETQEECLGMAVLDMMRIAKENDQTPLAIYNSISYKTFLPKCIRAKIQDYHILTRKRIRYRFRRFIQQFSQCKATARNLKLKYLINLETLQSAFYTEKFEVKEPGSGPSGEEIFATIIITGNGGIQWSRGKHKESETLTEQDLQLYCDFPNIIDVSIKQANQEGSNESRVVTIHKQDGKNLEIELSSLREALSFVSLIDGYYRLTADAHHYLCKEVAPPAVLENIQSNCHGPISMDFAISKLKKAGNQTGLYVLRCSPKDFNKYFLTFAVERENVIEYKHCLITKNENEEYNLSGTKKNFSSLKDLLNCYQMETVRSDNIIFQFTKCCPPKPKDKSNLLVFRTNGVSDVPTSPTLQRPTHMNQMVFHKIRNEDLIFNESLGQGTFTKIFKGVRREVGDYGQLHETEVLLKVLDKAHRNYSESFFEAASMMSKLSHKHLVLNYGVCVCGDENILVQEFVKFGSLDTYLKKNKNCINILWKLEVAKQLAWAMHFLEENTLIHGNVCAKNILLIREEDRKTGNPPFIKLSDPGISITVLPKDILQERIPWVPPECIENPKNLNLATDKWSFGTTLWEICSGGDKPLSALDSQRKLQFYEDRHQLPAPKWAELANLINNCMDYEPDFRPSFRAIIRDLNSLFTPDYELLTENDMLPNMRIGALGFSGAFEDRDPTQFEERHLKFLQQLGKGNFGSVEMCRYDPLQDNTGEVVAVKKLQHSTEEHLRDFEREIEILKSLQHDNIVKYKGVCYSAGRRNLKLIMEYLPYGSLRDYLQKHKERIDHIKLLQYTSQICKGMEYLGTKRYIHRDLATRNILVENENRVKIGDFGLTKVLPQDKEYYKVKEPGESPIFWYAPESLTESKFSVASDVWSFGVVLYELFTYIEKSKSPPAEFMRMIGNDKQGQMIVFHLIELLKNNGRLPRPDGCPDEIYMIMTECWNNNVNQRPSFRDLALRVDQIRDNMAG

Row | Structure (SMILES) | Solubility at PH 7.4 (μmol) [1] | JAK 3 (pKi) [2] | JAK 1 (pKi) [3] | Tall-1 IL2 pSTAT5 (pIC50) [4] | Solubility in PEG400 (mg/mL) [5] | Solubility in Diisopropyl adipate (mg/mL) [5] | Solubility in MCT (mg/mL) [5] | Solubility in Propylene glycol (mg/mL) [5] | Cacoverap Kp 10^−6 cm/sec [6] | Caco Kp 10^−6 cm/sec [6] | solubility at 4 h [7, 10] [µg/mL] | solubility at 4 h [7, 11] [µg/mL] | solubility at 4 h [7, 12] [µg/mL] | solubility at 4 h [7, 13] [µg/mL] | Ki [8] [nM] | Ki [2] [nM] | Ki ([3]; read-out: JAK 1 (pKi) (converted)) [nM] | IC50 ([4]; read-out: Tall-1 IL2 pSTAT5 (pIC50) (converted)) [nM] | JAK 2 (pKi) [9]
1 | CCNC(=O)CN1[C@@H]2CCC[C@H]1C[C@H](N(C)c1nc(Nc3cc(C)[nH]n3)cc(C3CCCO3)n1)C2 (stereo partly drawn) [Compound 15, N-ethyl-2-((1R,3s,5S)-3-(methyl(4-((5-methyl-1H-pyrazol-3-yl)amino)-6-(tetrahydrofuran-2-yl)pyrimidin-2-yl)amino)-9-azabicyclo[3.3.1]nonan-9-yl)acetamide] | A (A represents a value above 500) | B (B represents a pKi value between 9 and 10 (Ki between 1 nM and 0.1 nM)) | A (A represents a pKi value ≥10 (Ki≤0.1 nM)) | A (A represents a pIC50 value ≥8.0) | B (B represents a value between 5 and 10) | A (A represents a value above 10) | C (C represents a value below 5) | A (A represents a value above 10) | B (B represents a value between 20×10^−6 and 35×10^−6 cm/sec) | B (B represents a value between 15×10^−6 and 30×10^−6 cm/sec) | – | – | – | – | – | – | – | – | –
2 | CCS(=O)(=O)N1[C@@H]2CCC[C@H]1C[C@H](N(C)c1nc(Nc3cc(C)[nH]n3)c(F)c(C3CCOCC3)n1)C2 [Compound 45, N2-((1R,3s,5S)-9-(ethylsulfonyl)-9-azabicyclo[3.3.1]nonan-3-yl)-5-fluoro-N2-methyl-N4-(5-methyl-1H-pyrazol-3-yl)-6-(tetrahydro-2H-pyran-4-yl)pyrimidine-2,4-diamine] | E (E represents a value below 10) | C (C represents a pKi value between 8 and 9 (Ki between 10 nM and 1 nM)) | B (B represents a pKi value between 9 and 10 (Ki between 1 nM and 0.1 nM)) | A (A represents a pIC50 value ≥8.0) | A (A represents a value above 10) | A (A represents a value above 10) | C (C represents a value below 5) | A (A represents a value above 10) | B (B represents a value between 20×10^−6 and 35×10^−6 cm/sec) | B (B represents a value between 15×10^−6 and 30×10^−6 cm/sec) | – | – | – | – | – | – | – | – | –
3 | CCS(=O)(=O)N1[C@@H]2CCC[C@H]1C[C@H](N(C)c1nc(Nc3cc(C)[nH]n3)cc(OCC3COC3)n1)C2 [Compound 39, N^2-((1R,3s,5S)-9-(ethylsulfonyl)-9-azabicyclo[3.3.1]nonan-3-yl)-N2-methyl-N4-(5-methyl-1H-pyrazol-3-yl)-6-(oxetan-3-ylmethoxy)pyrimidine-2,4-diamine] | E (E represents a value below 10) | A (A represents a pKi value ≥10 (Ki≤0.1 nM)) | A (A represents a pKi value ≥10 (Ki≤0.1 nM)) | – | A (A represents a value above 10) | B (B represents a value between 5 and 10) | C (C represents a value below 5) | B (B represents a value between 5 and 10) | B (B represents a value between 20×10^−6 and 35×10^−6 cm/sec) | B (B represents a value between 15×10^−6 and 30×10^−6 cm/sec) | – | – | – | – | – | – | – | – | –
4 | COCCC(=O)N1[C@@H]2CCC[C@H]1C[C@H](N(C)c1nc(Nc3cc(C)[nH]n3)cc(O[C@@H]3CCOC3)n1)C2 [Compound 25] | – | – | – | – | – | – | – | – | – | – | < 5000 | > 10000 | > 10000 | > 10000 | 0.1 to 1 | 0.1 to 1 | 0.1 to 1 | ≤ 10 | A (A represents a pKi value ≥10 (Ki≤0.1 nM))
5 | Cc1cc(Nc2cc(C3CCCO3)nc(N(C)[C@@H]3C[C@H]4CCC[C@@H](C3)N4C(=O)CC3CC3)n2)n[nH]1 (stereo partly drawn) [Compound 12, 2-cyclopropyl-1-((1R,3s,5S)-3-(methyl(4-((5-methyl-1H-pyrazol-3-yl)amino)-6-(tetrahydrofuran-2-yl)pyrimidin-2-yl)amino)-9-azabicyclo[3.3.1]nonan-9-yl)ethan-1-one] | C (C represents a value between 50 and 250) | C (C represents a pKi value between 8 and 9 (Ki between 10 nM and 1 nM)) | B (B represents a pKi value between 9 and 10 (Ki between 1 nM and 0.1 nM)) | A (A represents a pIC50 value ≥8.0) | B (B represents a value between 5 and 10) | B (B represents a value between 5 and 10) | C (C represents a value below 5) | B (B represents a value between 5 and 10) | C (C represents a value between 12×10^−6 and 20×10^−6 cm/sec) | B (B represents a value between 15×10^−6 and 30×10^−6 cm/sec) | – | – | – | – | – | – | – | – | –
6 | CCNC(=O)CN1[C@@H]2CCC[C@H]1C[C@H](N(C)c1nc(Nc3cc(C)[nH]n3)cc(O[C@H]3CCOC3)n1)C2 [Compound 32] | – | – | A (A represents a pKi value ≥10 (Ki≤0.1 nM)) | – | – | – | – | – | – | – | < 5000 | > 10000 | > 10000 | > 10000 | 0.1 to 1 | 0.1 to 1 | – | – | A (A represents a pKi value ≥10 (Ki≤0.1 nM))
